Source: patent US8546395B2, “6-cycloamino-3-(1H-pyrrolo[2,3-b]pyridin-4-yl)imidazo[1,2-b]pyridazine derivatives, preparation thereof and therapeutic use thereof” (Sanofi, priority 2008, dated 2013)

What was measured:
[1] = target: T1, casein kinase 1 epsilon (CK1 epsilon) (Homo sapiens, UniProt P49674); experiment: Filter-plate assay of ATP-33P for CK1 epsilon inhibitors (phosphorylation of casein); type: biochemical; settings: casein substrate, ATP-33P with 10 μM cold ATP, 2 hours at ambient temperature
T1 construct: Invitrogen Corporation (as an alternative)
T1 sequence (P49674 whole entry): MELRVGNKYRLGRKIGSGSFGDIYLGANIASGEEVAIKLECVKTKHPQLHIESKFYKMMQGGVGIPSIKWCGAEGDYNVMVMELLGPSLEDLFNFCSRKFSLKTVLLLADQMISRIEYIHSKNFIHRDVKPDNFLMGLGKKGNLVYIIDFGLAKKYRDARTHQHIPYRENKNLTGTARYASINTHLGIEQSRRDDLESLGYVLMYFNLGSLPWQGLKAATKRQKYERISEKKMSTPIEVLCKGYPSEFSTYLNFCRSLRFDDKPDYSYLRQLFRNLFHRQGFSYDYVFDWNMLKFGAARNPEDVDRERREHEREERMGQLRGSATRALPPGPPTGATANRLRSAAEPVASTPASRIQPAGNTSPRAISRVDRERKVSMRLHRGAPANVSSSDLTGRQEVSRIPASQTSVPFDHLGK
Protocol: The capacity of the compounds of the invention to inhibit the phosphorylation of casein by casein kinase 1 epsilon and delta may be evaluated according to the procedure described in US 2005/0131012.
Filter-Plate Assay of ATP-^33P for the Screening of CK1 Epsilon Inhibitors:
The effect of the compounds on inhibition of the phosphorylation of casein by the enzyme casein kinase 1 epsilon (CK1 epsilon) is measured, using a casein assay with filtration of ATP-^33P in vitro.
Casein kinase 1 epsilon (0.58 mg/ml) is obtained via fermentation and purification processes performed according to methods that are well known to those skilled in the art, or may also be obtained from Invitrogen Corporation™ (human CK1 epsilon).
The compounds are tested at five different concentrations so as to generate IC50 values, i.e. the concentration at which a compound is capable of inhibiting the enzymatic activity by 50%, or alternatively the percentage of inhibition at a concentration of 10 micromolar.
“U”-bottomed Falcon plates are prepared by placing 5 μL of solutions of the compounds according to the invention at concentrations of 10, 1, 0.1, 0.01 or 0.001 μM in various wells. The solutions of the compounds according to the invention at these various concentrations are prepared by diluting in a test buffer (50 mM Tris, pH 7.5, […], 2 mM DTT and 1 mM EGTA) a stock solution in DMSO at a concentration of 10 mM. Next, 5 μL of dephosphorylated casein are added to a final concentration of 0.2 μg/μL, 20 μl of CK1 epsilon to a final concentration of 3 ng/μl, and 20 μl of ATP-^33P to a final concentration of 0.02 μCi/μl mixed with cold ATP (10 μM final—approximately 2×10^6 CPM per well). The final total test volume per well is equal to 50 μl.
The “U”-bottomed Falcon® test plate mentioned above is vortexed, and then incubated at ambient temperature for 2 hours. After 2 hours, the reaction is stopped by adding an ice-cold solution of 65 μl of ATP (2 mM) prepared in test buffer.
100 μl of the reaction mixture are then transferred from the “U”-bottomed Falcon® plate into Millipore® MAPH filter plates, preimpregnated with 25 μl of ice-cold 100% TCA. […]
The plates are left to dry overnight at ambient temperature. […] The radiation emitted by each well is then measured for 2 minutes in a Packard® Topcount NXT scintillation counter, in which the values of CPM/well are measured.
The percentage inhibition of the capacity of the enzyme to phosphorylate the substrate (casein) is determined for each concentration of compound tested. These inhibition data expressed as percentages are used to calculate the IC50 value for each compound compared with the controls.
The kinetic studies determined the KM value for ATP as being 21 μM in this test system.

[2] = tested on: Mper1-luc Rat-1 (P2C4) fibroblasts; experiment: Circadian cell assay (mPer1-luciferase reporter, period prolongation); type: cell-based; settings: effective concentration that induced a 1-hour prolongation of the circadian period, interpolated from hyperbolic curve
Protocol: Experimental Protocols for Circadian Cell Assay
Mper1-luc Rat-1 (P2C4) fibroblast cultures were prepared by dividing the cultures every 3-4 days (approximately 10-20% of confluence) on 150 cm^2 degassed polystyrene tissue culture flasks (Falcon® #35-5001) and maintained in growth medium [EMEM (Celigro #10-010-CV); 10% foetal bovine serum (FBS; Gibco #16000-044); and 50 I.U./ml of penicillin-streptomycin (Celigro #30-001-CI)] at 37° C. and under 5% CO2.
Cells obtained from Rat-1 fibroblast cultures at 30-50% of confluence as described above were co-transfected with vectors containing the selection marker for resistance to zeocin for a stable transfection and a luciferase reporter gene controlled by the mPer-1 promoter. After 24 to 48 hours, the cultures were divided on 96-well plates and maintained in growth medium supplemented with 50-100 μg/ml of zeocin (Invitrogen® #45-0430) for 10-14 days. The zeocin-resistant stable transfectants were evaluated for the expression of the reporter by adding 100 μM luciferin (Promega® #E1603®) to the growth medium and by assaying the luciferase activity on a TopCount scintillation counter (Packard Model #C384V00). The Rat-1 cell clones expressing both zeocin resistance and lucerifase activity controlled by mPer1 were serum-shock synchronized with 50% horse serum [HS (Gibco® #16050-122)] and the activity of the circadian reporter was evaluated. The P2C4 clone of Mper1-luc Rat-1 fibroblasts was selected to test the compound. Mper1-luc Rat-1 ([…]) fibroblasts at 40-50% of confluence, obtained according to the protocol described above, were plated out onto 96-well opaque tissue culture plates (Perkin Elmer® #6005680). […]
The period analysis was performed either by determining the interval between the relative light emission minima over several days or by Fourier transform. […] The data were analysed by adjusting a hyperbolic curve to the data expressed as change of period (y-axis) as a function of the concentration of the test compound (x-axis) in the XLfit™ software and the CE Delta (t+1 h) was interpolated from this curve.

human CK1 delta = target: T2, human CK1 delta (Homo sapiens, UniProt P48730); experiment: FRET fluorescence test (Z'Lyte kinase assay Kit), peptide substrate SER/THR 11; type: biochemical; settings: peptide substrate 2 μM, ATP at 4 times the KM
T2 construct: purchased Invitrogen Corporation PV3665
T2 sequence (P48730 whole entry): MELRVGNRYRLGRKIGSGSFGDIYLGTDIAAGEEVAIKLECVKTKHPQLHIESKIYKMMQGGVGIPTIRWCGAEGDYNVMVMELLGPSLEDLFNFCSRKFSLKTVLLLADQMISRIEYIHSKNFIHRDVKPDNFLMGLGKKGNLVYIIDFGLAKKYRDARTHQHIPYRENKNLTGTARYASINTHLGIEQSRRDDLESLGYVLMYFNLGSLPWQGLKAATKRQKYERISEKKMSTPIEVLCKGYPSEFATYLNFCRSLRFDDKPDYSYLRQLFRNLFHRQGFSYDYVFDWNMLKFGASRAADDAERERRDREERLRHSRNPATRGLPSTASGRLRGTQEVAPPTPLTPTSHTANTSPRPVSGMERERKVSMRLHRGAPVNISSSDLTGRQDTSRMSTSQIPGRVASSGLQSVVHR
Excerpt: The capacity of the compounds of the invention to inhibit the phosphorylation of casein by casein kinase 1 epsilon and delta may be evaluated using a FRET (“Fluorescence Resonance Energy Transfer) fluorescence test with the aid of the “Z'Lyte™ kinase assay Kit” (reference PV3670; Invitrogen Corporation™) according to the manufacturer's instructions.
The casein kinases 1 used are obtained from Invitrogen Corporation (human CK1 epsilon PV3500 and human CK1 delta PV3665).
A peptide substrate, labelled at both ends with a fluorophor donor group (coumarin) and a fluorophor acceptor group (fluorescein) constituting a FRET system is phosphorylated in the presence of ATP by casein kinase 1 epsilon or delta in the presence of increasing concentrations of compounds of the invention.
The mixture is treated with a site-specific protease that specifically cleaves the peptide substrate to form two fluorescent fragments having a large fluorescence emission ratio.
The fluorescence observed is thus related to the capacity of the products of the invention to inhibit the phosphorylation of the peptide substrate by casein kinase 1 epsilon or casein kinase 1 delta.
The compounds of the invention are dissolved at different concentrations starting with a 10 mM stock solution in DMSO diluted in a buffer containing 50 mM HEPS, pH 7.5, 1 m MEGTA, 0.01% Brij-35, 10 mM MgCl2 for casein kinase 1 epsilon and supplemented with Trizma Base (50 mM), pH 8.0, and NaN3 (0.01% final) for casein kinase 1 delta.
The phosphorylation of the peptide substrate SER/THR 11 obtained from Invitrogen Corporation™ is performed at a final concentration of 2 μM. The ATP concentration is 4 times the KM, this value being 2 μM for casein kinase 1 epsilon and 4 μM for casein kinase 1 delta.
The emitted fluorescence is measured at wavelengths of 445 and 520 nm (excitation at 400 nm).

Row | IC50 [1] [nM] | melting point [°C] | IC50 (human CK1 delta) [nM] | SMILES | CE Delta (t + 1 h) [2] [nM]
1 | 1 to 2 | 285 to 287 | – | C[C@@H]1CN(c2ccc3nc(-c4ccc(F)cc4)c(-c4ccnc5[nH]ccc45)n3n2)CCN1 [Compound 6, 2-(4-Fluorophenyl)-6-[(3R)-3-methylpiperazin-1-yl]-3-(1H-pyrrolo[2,3-b]pyridin-4-yl)imidazo[1,2-b]pyridazine] | 2 to 3
2 | – | 273 to 276 | 30 to 42 | CC(C)(O)CN1CCN(c2ccc3nc(-c4ccc(F)cc4)c(-c4ccnc5[nH]ccc45)n3n2)CC1 [Compound 20, 1-{4-[2-(4-Fluorophenyl)-3-(1H-pyrrolo[2,3-b]pyridin-4-yl)imidazo[1,2-b]pyridazin-6-yl]piperazin-1-yl}-2-methylpropan-2-ol] | –
3 | – | – | 5 | Cc1cc(N2C[C@H]3CN(C)C[C@H]3C2)nn2c(-c3ccnc4[nH]ccc34)c(-c3ccc(F)cc3)nc12 [Compound 29, (Cis)-2-(4-fluorophenyl)-8-methyl-6-(5-methyl-hexahydropyrrolo[3,4-c]pyrrol-2(1H)-yl)-3-(1H-pyrrolo[2,3-b]pyridin-4-yl)imidazo[1,2-b]pyridazine] | –
4 | 6 | – | – | Fc1ccc(-c2nc3ccc(N4CCC5(CCCNC5)CC4)nn3c2-c2ccnc3[nH]ccc23)cc1 [Compound 35, 9-[2-(4-Fluorophenyl)-3-(1H-pyrrolo[2,3-b]pyridin-4-yl)imidazo[1,2-b]pyridazin-6-yl]-2,9-diazaspiro[5.5]undecane] | 305
